Test results from patent publication US20200000721A1, “AQUEOUS COMPOSITIONS AND ASSOCIATED CREAM FORMULATIONS” (MedReleaf Corp., priority 2018, published 2020).

Test system: microbial growth in the aqueous composition
Conditions: 0.09% in aqueous composition of Table 6
Procedure: Microbiological testing was conducted according to USP <51> and USP (Antimicrobial Effectiveness Test) and USP <61> and <62> (Suitability Testing) in order to compare the effectiveness of 1) 0.09% potassium sorbate 2) 0.045% potassium sorbate and 0.045% Euxul™ 9010 and 3) 0.09% Euxul™ 9010 as an antimicrobial agent for prohibiting microbial growth in the aqueous composition described in Table 6.

SMILES: C/C=C/C=C/C(=O)[O-].[K+] [potassium sorbate]
- effectiveness as antimicrobial agent (comparison): as effective as Euxul™ 9010 and/or the combination of Euxul™ 9010 and potassium sorbate
